Experiment: Stability of cannabinoid compounds and Vitamin E components in Beverage 1 (AB White) by LCMSMS
Type: physicochemical
Conditions: for Stability of Plant-Derived Cannabinoid Compounds in AB White, 8° C.: AB White stored at 8° C.; for Stability of Plant-Derived Cannabinoid Compounds in AB White, 21-25° C.: AB White stored at 21-25° C.
Experimental: The stability of the plant-derived cannabinoid compounds and Vitamin E components of the beverage stored 8° C. and at room temperature (21-25° C.) were monitored, over a period of 570 days via Liquid Chromatography-tandem Mass Spectrometry [LCMSMS, Agilent 6590, C18, 3×50 mm, 2.7 m (Agilent InfinityLab Poroshell 120 EC-C18), Electrospray Ionization detector]. The LCMSMS was calibrated for 0-1000 ng/ml cannabinoids with the same resin material used in the preparation of the concentrates. At each time period, 100 ml of beverage was diluted with 10 ml of methanol and injected into the LCMSMS for analysis.

CCCCCc1cc2c(c(O)c1C(=O)O)[C@@H]1C=C(C)CC[C@H]1C(C)(C)O2 [D9 THCA, delta-9-tetrahydrocannabinolic acid]
Stability of Plant-Derived Cannabinoid Compounds in AB White, 8° C. (0 days): 0.950 µg/mL | Stability of Plant-Derived Cannabinoid Compounds in AB White, 8° C. (1 days): 0.956 µg/mL | Stability of Plant-Derived Cannabinoid Compounds in AB White, 8° C. (2 days): 0.954 µg/mL | Stability of Plant-Derived Cannabinoid Compounds in AB White, 8° C. (3 days): 0.934 µg/mL | Stability of Plant-Derived Cannabinoid Compounds in AB White, 8° C. (5 days): 0.956 µg/mL | Stability of Plant-Derived Cannabinoid Compounds in AB White, 8° C. (8 days): 0.949 µg/mL | Stability of Plant-Derived Cannabinoid Compounds in AB White, 8° C. (9 days): 0.937 µg/mL | Stability of Plant-Derived Cannabinoid Compounds in AB White, 8° C. (10 days): 0.960 µg/mL | Stability of Plant-Derived Cannabinoid Compounds in AB White, 8° C. (11 days): 0.929 µg/mL | Stability of Plant-Derived Cannabinoid Compounds in AB White, 8° C. (12 days): 0.942 µg/mL | Stability of Plant-Derived Cannabinoid Compounds in AB White, 8° C. (15 days): 0.944 µg/mL | Stability of Plant-Derived Cannabinoid Compounds in AB White, 8° C. (16 days): 0.932 µg/mL | Stability of Plant-Derived Cannabinoid Compounds in AB White, 8° C. (17 days): 0.951 µg/mL | Stability of Plant-Derived Cannabinoid Compounds in AB White, 8° C. (18 days): 0.950 µg/mL | Stability of Plant-Derived Cannabinoid Compounds in AB White, 8° C. (19 days): 0.959 µg/mL | Stability of Plant-Derived Cannabinoid Compounds in AB White, 8° C. (22 days): 0.960 µg/mL | Stability of Plant-Derived Cannabinoid Compounds in AB White, 8° C. (23 days): 0.931 µg/mL | Stability of Plant-Derived Cannabinoid Compounds in AB White, 8° C. (24 days): 0.926 µg/mL | Stability of Plant-Derived Cannabinoid Compounds in AB White, 8° C. (25 days): 0.957 µg/mL | Stability of Plant-Derived Cannabinoid Compounds in AB White, 8° C. (26 days): 0.956 µg/mL | Stability of Plant-Derived Cannabinoid Compounds in AB White, 8° C. (29 days): 0.939 µg/mL | Stability of Plant-Derived Cannabinoid Compounds in AB White, 8° C. (30 days): 0.955 µg/mL | Stability of Plant-Derived Cannabinoid Compounds in AB White, 8° C. (60 days): 0.914 µg/mL | Stability of Plant-Derived Cannabinoid Compounds in AB White, 8° C. (90 days): 0.948 µg/mL | Stability of Plant-Derived Cannabinoid Compounds in AB White, 8° C. (120 days): 0.932 µg/mL | Stability of Plant-Derived Cannabinoid Compounds in AB White, 8° C. (150 days): 0.952 µg/mL | Stability of Plant-Derived Cannabinoid Compounds in AB White, 8° C. (180 days): 0.941 µg/mL | Stability of Plant-Derived Cannabinoid Compounds in AB White, 8° C. (210 days): 0.923 µg/mL | Stability of Plant-Derived Cannabinoid Compounds in AB White, 8° C. (240 days): 0.932 µg/mL | Stability of Plant-Derived Cannabinoid Compounds in AB White, 8° C. (270 days): 0.933 µg/mL | Stability of Plant-Derived Cannabinoid Compounds in AB White, 8° C. (300 days): 0.939 µg/mL | Stability of Plant-Derived Cannabinoid Compounds in AB White, 8° C. (330 days): 0.909 µg/mL | Stability of Plant-Derived Cannabinoid Compounds in AB White, 8° C. (360 days): 0.913 µg/mL | Stability of Plant-Derived Cannabinoid Compounds in AB White, 8° C. (390 days): 0.923 µg/mL | Stability of Plant-Derived Cannabinoid Compounds in AB White, 8° C. (420 days): 0.916 µg/mL | Stability of Plant-Derived Cannabinoid Compounds in AB White, 8° C. (450 days): 0.923 µg/mL | Stability of Plant-Derived Cannabinoid Compounds in AB White, 8° C. (480 days): 0.905 µg/mL | Stability of Plant-Derived Cannabinoid Compounds in AB White, 8° C. (510 days): 0.873 µg/mL | Stability of Plant-Derived Cannabinoid Compounds in AB White, 8° C. (540 days): 0.877 µg/mL | Stability of Plant-Derived Cannabinoid Compounds in AB White, 8° C. (570 days): 0.872 µg/mL | Stability of Plant-Derived Cannabinoid Compounds in AB White, 21-25° C. (0 days): 0.950 µg/mL | Stability of Plant-Derived Cannabinoid Compounds in AB White, 21-25° C. (1 days): 0.960 µg/mL | Stability of Plant-Derived Cannabinoid Compounds in AB White, 21-25° C. (2 days): 0.938 µg/mL | Stability of Plant-Derived Cannabinoid Compounds in AB White, 21-25° C. (3 days): 0.920 µg/mL | Stability of Plant-Derived Cannabinoid Compounds in AB White, 21-25° C. (5 days): 0.958 µg/mL | Stability of Plant-Derived Cannabinoid Compounds in AB White, 21-25° C. (8 days): 0.937 µg/mL | Stability of Plant-Derived Cannabinoid Compounds in AB White, 21-25° C. (9 days): 0.926 µg/mL | Stability of Plant-Derived Cannabinoid Compounds in AB White, 21-25° C. (10 days): 0.935 µg/mL | Stability of Plant-Derived Cannabinoid Compounds in AB White, 21-25° C. (11 days): 0.949 µg/mL | Stability of Plant-Derived Cannabinoid Compounds in AB White, 21-25° C. (12 days): 0.935 µg/mL | Stability of Plant-Derived Cannabinoid Compounds in AB White, 21-25° C. (15 days): 0.948 µg/mL | Stability of Plant-Derived Cannabinoid Compounds in AB White, 21-25° C. (16 days): 0.921 µg/mL | Stability of Plant-Derived Cannabinoid Compounds in AB White, 21-25° C. (17 days): 0.919 µg/mL | Stability of Plant-Derived Cannabinoid Compounds in AB White, 21-25° C. (18 days): 0.928 µg/mL | Stability of Plant-Derived Cannabinoid Compounds in AB White, 21-25° C. (19 days): 0.917 µg/mL | Stability of Plant-Derived Cannabinoid Compounds in AB White, 21-25° C. (22 days): 0.947 µg/mL | Stability of Plant-Derived Cannabinoid Compounds in AB White, 21-25° C. (23 days): 0.924 µg/mL | Stability of Plant-Derived Cannabinoid Compounds in AB White, 21-25° C. (24 days): 0.927 µg/mL | Stability of Plant-Derived Cannabinoid Compounds in AB White, 21-25° C. (25 days): 0.948 µg/mL | Stability of Plant-Derived Cannabinoid Compounds in AB White, 21-25° C. (26 days): 0.921 µg/mL | Stability of Plant-Derived Cannabinoid Compounds in AB White, 21-25° C. (29 days): 0.922 µg/mL | Stability of Plant-Derived Cannabinoid Compounds in AB White, 21-25° C. (30 days): 0.934 µg/mL | Stability of Plant-Derived Cannabinoid Compounds in AB White, 21-25° C. (60 days): 0.896 µg/mL | Stability of Plant-Derived Cannabinoid Compounds in AB White, 21-25° C. (90 days): 0.892 µg/mL | Stability of Plant-Derived Cannabinoid Compounds in AB White, 21-25° C. (120 days): 0.894 µg/mL | Stability of Plant-Derived Cannabinoid Compounds in AB White, 21-25° C. (150 days): 0.934 µg/mL | Stability of Plant-Derived Cannabinoid Compounds in AB White, 21-25° C. (180 days): 0.945 µg/mL | Stability of Plant-Derived Cannabinoid Compounds in AB White, 21-25° C. (210 days): 0.913 µg/mL | Stability of Plant-Derived Cannabinoid Compounds in AB White, 21-25° C. (240 days): 0.892 µg/mL | Stability of Plant-Derived Cannabinoid Compounds in AB White, 21-25° C. (270 days): 0.905 µg/mL | Stability of Plant-Derived Cannabinoid Compounds in AB White, 21-25° C. (300 days): 0.888 µg/mL | Stability of Plant-Derived Cannabinoid Compounds in AB White, 21-25° C. (330 days): 0.894 µg/mL | Stability of Plant-Derived Cannabinoid Compounds in AB White, 21-25° C. (360 days): 0.925 µg/mL | Stability of Plant-Derived Cannabinoid Compounds in AB White, 21-25° C. (390 days): 0.907 µg/mL | Stability of Plant-Derived Cannabinoid Compounds in AB White, 21-25° C. (420 days): 0.909 µg/mL | Stability of Plant-Derived Cannabinoid Compounds in AB White, 21-25° C. (450 days): 0.921 µg/mL | Stability of Plant-Derived Cannabinoid Compounds in AB White, 21-25° C. (480 days): 0.873 µg/mL | Stability of Plant-Derived Cannabinoid Compounds in AB White, 21-25° C. (510 days): 0.903 µg/mL | Stability of Plant-Derived Cannabinoid Compounds in AB White, 21-25° C. (540 days): 0.877 µg/mL | Stability of Plant-Derived Cannabinoid Compounds in AB White, 21-25° C. (570 days): 0.877 µg/mL
